Experimental data taken from patent US5859016A, “Memory enhancing and anti-dementia agent containing dehydroevodiamine HC1 as active ingredient” (priority 1995, dated 1999).
pIC50: −log10 of the molar value. Structures can show the parent of a compound that is named as a salt.

Experiments:
[1] = Single toxicity study, lethality by a single oral administration; format: in vivo, rats; details: rat, in vivo; after a single administration (oral)
Experimental: (§1) A single toxicity study of the anti-dementia agent according to this invention was measured using rats. […] The lethality results by a single oral administration of DHED are as follows: […]

rats = experiment: as above; format: in vivo; details: single oral, 14 days
Experimental: as §1

[2] = system: scopolamine induced amnesia; experiment: Passive avoidance test, scopolamine induced amnesia; format: in vivo; details: rats
Experimental: Male Sprague-Dawley rates weighing 200~250 g (12~16 weeks) which had been maintained on a 12 h/12 h light-dark cycle were used for a passive avoidance test. Food and water were available ad libitum. An automated system with a shuttle box (Model PACS-30, Columbus Instruments International Company) was used to evaluate the effects of the extracts on learning and memory essentially as described (11). The shuttle box was divided into two chambers of equal size (19"L×9"W×10.875"H). These compartments were separated by a guillotine door (3" L×2.625" W). A light chamber is equipped with an illuminator. Rats can go to the dark chamber through a guillotine door. […]
At 24 hours after the training trial, scopolamine (1 mg/kg) or the same volume of saline was intraperitoneally injected to the rats. […] At 24 hours after the acquisition trial, the rat was again placed in the light compartment and latency to enter the dark compartment was measured for 180 sec (retention trial).
To investigate the effects of repeated administration of DHED, a repeated administration of DHED was intraperitoneally given to the rats at a dose of 6.25 mg/kg. Except for the fact that DHED (6.25 mg/kg) was given to the rats once a day for 5 days before the treatment with scopolamine, the latency time was measured in the same manner as in the single administration.

AChE = target: T1, AChE (Mus musculus, UniProt P21836); experiment: Determination of AChE inhibitory activity (Ellman reagent, acetylthiocholine iodide); format: biochemical, mice
T1 construct: The resulting supernatant was used as an AChE source; from tissue; host or cells: mouse cerebral cortex (detergent-extracted supernatant)
T1 sequence (P21836 32-614): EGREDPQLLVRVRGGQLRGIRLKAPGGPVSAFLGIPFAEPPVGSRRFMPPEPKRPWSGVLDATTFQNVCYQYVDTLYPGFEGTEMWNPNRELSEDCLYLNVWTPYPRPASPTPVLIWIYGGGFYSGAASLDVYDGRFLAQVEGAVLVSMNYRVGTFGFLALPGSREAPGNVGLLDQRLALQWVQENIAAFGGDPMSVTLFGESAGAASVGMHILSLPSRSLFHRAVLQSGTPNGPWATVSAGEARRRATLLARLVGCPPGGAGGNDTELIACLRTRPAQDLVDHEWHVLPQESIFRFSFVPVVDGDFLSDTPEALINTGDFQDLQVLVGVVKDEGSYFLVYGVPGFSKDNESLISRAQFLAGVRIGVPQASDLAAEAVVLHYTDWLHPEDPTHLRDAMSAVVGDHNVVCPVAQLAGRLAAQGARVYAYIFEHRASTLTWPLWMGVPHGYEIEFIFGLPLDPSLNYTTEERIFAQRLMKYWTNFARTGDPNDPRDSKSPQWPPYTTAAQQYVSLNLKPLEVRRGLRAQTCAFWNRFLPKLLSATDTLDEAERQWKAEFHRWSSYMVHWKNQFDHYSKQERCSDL
Experimental: In order to determine AChE inhibitory activity on each of the 20 subfractions obtained from EXAMPLE 1, 10 volumes of phosphate buffer solution (12.5 mM phosphate buffer solution at pH 7.0, including 400 mM NaCl) was added to the cerebral cortex of mice, homogenized in a Potter-Elvehjem homogenizer and centrifuged at 1,000 g for 10 min to obtain the supernatant. After adding homogenized buffer containing 0.5% triton X-100 to the supernatant, the mixtures were stirred for 30 min and centrifuged again at 10,000 for 10 min. The resulting supernatant was used as an AChE source. All extract steps were carried out at 4° C.
The freeze-dried 20 subfraction extracts of EXAMPLE 1 were initially dissolved in small amounts of distilled water and DMSO. The solution was diluted at a concentration of 200 μg/ml in phosphate buffer (100 mM sodium phosphate, pH 8.0; hereinafter called "buffer solution I"). 1.5 ml of each extract was mixed with 1.5 ml of buffer solution I, 20 μl of 75 mM acetylthiocholine iodide solution and 100 μl of buffered Ellmans reagent [10 mM DTNB (5,5-dithiobis-(2-nitrobenzoic acid)) and 17.85 mM NaHCO3 ] and incubated at 25° C. for 10 min. Absorbance was read at 410 nm immediately after adding an enzyme to the above reaction mixtures. Reading was repeated for 5 min at 30 sec intervals in order to determine AChE inhibitory activity on each subfraction. A blank control reaction was measured by substituting saline for the enzyme.
AChE activity was calculated with the absorption coefficient […]. The inhibition efficacy was expressed as a percentage of enzyme activity inhibited compared with the control value (100%).
All experiments were repeated five times, and the results were analyzed by a Wilcoxon-rank sum test and Median 2-sample test.

C[n+]1c2n(c(=O)c3ccccc31)CCc1c-2[nH]c2ccccc12 [DHED, dehydroevodiamine-HCl]
LD50 [1]: 2000 mg/kg
Mortality (rats; female, 1,000 mg/kg): 1/5
Mortality (rats; female, 1,500 mg/kg): 2/5
Mortality (rats; female, 2,000 mg/kg): 0/5
Mortality (rats; female, 3,000 mg/kg): 5/5
Mortality (rats; female, 4,000 mg/kg): 5/5
Mortality (rats; male, 1,000 mg/kg): 0/5
Mortality (rats; male, 1,500 mg/kg): 0/5
Mortality (rats; male, 2,000 mg/kg): 5/5
Mortality (rats; male, 3,000 mg/kg): 4/5
Mortality (rats; male, 4,000 mg/kg): 5/5
memory enhancement (latency in retention trial), repeated administration ([2]; 6.25 mg/kg intraperitoneally once a day for 5 days before scopolamine 1 mg/kg, FIG. 6): may improve memory enhancement
memory enhancement (latency in retention trial), single administration ([2]; 6.25 mg/kg intraperitoneally, single, scopolamine 1 mg/kg, FIG. 5): significant memory enhancement
pIC50 (AChE; AChE source from cerebral cortex of mice, FIG. 3, read-out: concentration required for 50% enzyme inhibition (IC50) of AChE): 4.42
inhibitory effect on AChE, dose dependence (AChE; FIG. 3): strong inhibitory effect on AChE in a dose-dependent manner
manner of AChE inhibition (Lineweaver-Burke plots) (AChE; substrate 23 to 230 μM, DHED 40 μM, FIG. 4): non-competitive
